From patent US11470846B2, “Herbicidal pyridino-/pyrimidino-thiazoles” (SYNGENTA PARTICIPATIONS AG, priority 2014, dated 2022)

Experiments:
Format in all cases: in vivo
[1] = system: Oryza sativa (ORYSA); experiment: Pre-emergence herbicidal activity; conditions: pre-emergence application, 1000 g/Ha, evaluated after 13 days, scale 0-5
Protocol: (§1) B1 Pre-Emergence Herbicidal Activity
(§2) Seeds of a variety of test species were sown in standard soil in pots: Triticum aestivium (TRZAW), Oryza sativa (ORYSA), Avena fatua (AVEFA), Alopecurus myosuroides (ALOMY), Echinochloa crus-galli (ECHCG), Lolium perenne (LOLPE), Zea Mays (ZEAMX), Abutilon theophrasti (ABUTH), Amaranthus retroflexus (AMARE) and Setaria faberi (SETFA). After cultivation for one day (pre-emergence) under controlled conditions in a glasshouse (at 24/16° C., day/night; 14 hours light; 65% humidity), the plants were sprayed with an aqueous spray solution derived from the formulation of the technical active ingredient in acetone/water (50:50) solution containing 0.5% Tween 20 (polyoxyethelyene sorbitan monolaurate, CAS RN 9005-64-5). The test plants were then grown in a glasshouse under controlled conditions (at 24/16° C., day/night; 14 hours light; 65% humidity) and watered twice daily. After 13 days, the test was evaluated (5=total damage to plant; 0=no damage to plant).

[2] = system: Triticum aestivium (TRZAW); experiment: Pre-emergence herbicidal activity; conditions: pre-emergence application, 1000 g/Ha, evaluated after 13 days, scale 0-5
Protocol: as §1, §2

[3] = system: Echinochloa crus-galli (ECHCG); experiment: Pre-emergence herbicidal activity; conditions: pre-emergence application, 1000 g/Ha, evaluated after 13 days, scale 0-5; Table 5
Protocol: as §1, §2

[4] = system: Lolium perenne (LOLPE); experiment: Pre-emergence herbicidal activity; conditions: pre-emergence application, 1000 g/Ha, evaluated after 13 days, scale 0-5; Table 5
Protocol: as §1, §2

[5] = system: Alopecurus myosuroides (ALOMY); experiment: Pre-emergence herbicidal activity; conditions: pre-emergence application, 1000 g/Ha, evaluated after 13 days, scale 0-5
Protocol: as §1, §2

[6] = system: Avena fatua (AVEFA); experiment: Pre-emergence herbicidal activity; conditions: pre-emergence application, 1000 g/Ha, evaluated after 13 days, scale 0-5
Protocol: as §1, §2

[7] = system: Oryza sativa (ORYSA); experiment: Post-emergence herbicidal activity; conditions: post-emergence application, 1000 g/Ha, evaluated after 13 days, scale 0-5
Protocol: (§3) B2 Post-Emergence Herbicidal Activity
(§4) Seeds of a variety of test species were sown in standard soil in pots: Triticum aestivium (TRZAW), Oryza sativa (ORYSA), Avena fatua (AVEFA), Alopecurus myosuroides (ALOMY), Echinochloa crus-galli (ECHCG), Lolium perenne (LOLPE), Zea Mays (ZEAMX), Abutilon theophrasti (ABUTH), Amaranthus retroflexus (AMARE) and Setaria faberi (SETFA). After 8 days cultivation (post-emergence) under controlled conditions in a glasshouse (at 24/16° C., day/night; 14 hours light; 65% humidity), the plants were sprayed with an aqueous spray solution derived from the formulation of the technical active ingredient in acetone/water (50:50) solution containing 0.5% Tween 20 (polyoxyethelyene sorbitan monolaurate, CAS RN 9005-64-5). The test plants were then grown in a glasshouse under controlled conditions (at 24/16° C., day/night; 14 hours light; 65% humidity) and watered twice daily. After 13 days, the test was evaluated (5=total damage to plant; 0=no damage to plant).

[8] = system: Triticum aestivium (TRZAW); experiment: Post-emergence herbicidal activity; conditions: post-emergence application, 1000 g/Ha, evaluated after 13 days, scale 0-5
Protocol: as §3, §4

[9] = system: Echinochloa crus-galli (ECHCG); experiment: Post-emergence herbicidal activity; conditions: post-emergence application, 1000 g/Ha, evaluated after 13 days, scale 0-5; Table 7
Protocol: as §3, §4

[10] = system: Lolium perenne (LOLPE); experiment: Post-emergence herbicidal activity; conditions: post-emergence application, 1000 g/Ha, evaluated after 13 days, scale 0-5; Table 7
Protocol: as §3, §4

[11] = system: Alopecurus myosuroides (ALOMY); experiment: Post-emergence herbicidal activity; conditions: post-emergence application, 1000 g/Ha, evaluated after 13 days, scale 0-5
Protocol: as §3, §4

[12] = system: Avena fatua (AVEFA); experiment: Post-emergence herbicidal activity; conditions: post-emergence application, 1000 g/Ha, evaluated after 13 days, scale 0-5
Protocol: as §3, §4

`Cc1nc(-c2cncc(S(C)(=O)=O)c2)sc1N(C)C(=O)OC(C)(C)C` [Compound A9] was tested, and the “Control of weed species, ORYSA (damage score)” value (“Control of weed species, ORYSA” for short) [1] was 0, the “Control of weed species, TRZAW (damage score)” value (“Control of weed species, TRZAW” for short) [2] was 0 and the “Control of weed species, ECHCG (damage score)” value (“Control of weed species, ECHCG” for short) [3] was 0. The “Control of weed species, LOLPE (damage score)” value (“Control of weed species, LOLPE” for short) [4] was 0, the “Control of weed species, ALOMY (damage score)” value (“Control of weed species, ALOMY” for short) [5] was 0 and the “Control of weed species, AVEFA (damage score)” value (“Control of weed species, AVEFA” for short) [6] was 0. For the same compound, the “Control of weed species, ORYSA” value [7] was 1, the “Control of weed species, TRZAW” value [8] was 2 and the “Control of weed species, ECHCG” value [9] was 2. For the same compound, the “Control of weed species, LOLPE” value [10] was 1, the “Control of weed species, ALOMY” value [11] was 1 and the “Control of weed species, AVEFA” value [12] was 2.
With `COc1cncc(-c2nc(C)c(N(C)C(=O)OC(C)(C)C)s2)c1` [Compound A6] the “Control of weed species, ORYSA” value [1] was 1, the “Control of weed species, TRZAW” value [2] was 0 and the “Control of weed species, ECHCG” value [3] was 2. The “Control of weed species, LOLPE” value [4] was 1, the “Control of weed species, ALOMY” value [5] was 1 and the “Control of weed species, AVEFA” value [6] was 0. For the same compound, the “Control of weed species, ORYSA” value [7] was 0, the “Control of weed species, TRZAW” value [8] was 1 and the “Control of weed species, ECHCG” value [9] was 4. The “Control of weed species, LOLPE” value [10] was 2, the “Control of weed species, ALOMY” value [11] was 1 and the “Control of weed species, AVEFA” value [12] was 2.
In the case of `CN(C(=O)OC(C)(C)C)c1sc(-c2cncc(F)c2)nc1I` [Compound A52], the “Control of weed species, ORYSA” value [1] was 1, the “Control of weed species, TRZAW” value [2] was 0 and the “Control of weed species, ECHCG” value [3] was 2. For the same compound, the “Control of weed species, LOLPE” value [4] was 3, the “Control of weed species, ALOMY” value [5] was 0 and the “Control of weed species, AVEFA” value [6] was 3. For the same compound, the “Control of weed species, ORYSA” value [7] was 0, the “Control of weed species, TRZAW” value [8] was 1 and the “Control of weed species, ECHCG” value [9] was 4. For the same compound, the “Control of weed species, LOLPE” value [10] was 3, the “Control of weed species, ALOMY” value [11] was 1 and the “Control of weed species, AVEFA” value [12] was 4.
In the case of `Cc1nc(-c2cncnc2)sc1N(C)C(=O)OC(C)(C)C` [Compound A2, tert-butyl N-methyl-N-(4-methyl-2-pyrimidin-5-yl-thiazol-5-yl)carbamate], the “Control of weed species, ORYSA” value [1] was 1, the “Control of weed species, TRZAW” value [2] was 0 and the “Control of weed species, ECHCG” value [3] was 5. For the same compound, the “Control of weed species, LOLPE” value [4] was 2, the “Control of weed species, ALOMY” value [5] was 0 and the “Control of weed species, AVEFA” value [6] was 3. The “Control of weed species, ORYSA” value [7] was 1, the “Control of weed species, TRZAW” value [8] was 1 and the “Control of weed species, ECHCG” value [9] was 5. The “Control of weed species, LOLPE” value [10] was 3, the “Control of weed species, ALOMY” value [11] was 1 and the “Control of weed species, AVEFA” value [12] was 5.
For `Cc1nc(-c2cccnc2)sc1N(C)C(=O)NC(C)(C)C` [Compound A21, 3-tert-butyl-1-methyl-1-[4-methyl-2-(3-pyridyl)thiazol-5-yl]urea], the “Control of weed species, ORYSA” value [1] was 0, the “Control of weed species, TRZAW” value [2] was 0 and the “Control of weed species, ECHCG” value [3] was 5. For the same compound, the “Control of weed species, LOLPE” value [4] was 1, the “Control of weed species, ALOMY” value [5] was 0 and the “Control of weed species, AVEFA” value [6] was 2. The “Control of weed species, ORYSA” value [7] was 0, the “Control of weed species, TRZAW” value [8] was 1 and the “Control of weed species, ECHCG” value [9] was 5. The “Control of weed species, LOLPE” value [10] was 3, the “Control of weed species, ALOMY” value [11] was 2 and the “Control of weed species, AVEFA” value [12] was 4.
For `CN(C(=O)OC(C)(C)C)c1sc(-c2cccnc2)nc1Br` [Compound A30, tert-butyl N-[4-bromo-2-(3-pyridyl)thiazol-5-yl]-N-methyl-carbamate], the “Control of weed species, ORYSA” value [1] was 1, the “Control of weed species, TRZAW” value [2] was 0 and the “Control of weed species, ECHCG” value [3] was 4. For the same compound, the “Control of weed species, LOLPE” value [4] was 2, the “Control of weed species, ALOMY” value [5] was 1 and the “Control of weed species, AVEFA” value [6] was 3. For the same compound, the “Control of weed species, ORYSA” value [7] was 1, the “Control of weed species, TRZAW” value [8] was 2 and the “Control of weed species, ECHCG” value [9] was 5. For the same compound, the “Control of weed species, LOLPE” value [10] was 4, the “Control of weed species, ALOMY” value [11] was 1 and the “Control of weed species, AVEFA” value [12] was 4.
`CN(C(=O)OC(C)(C)C)c1sc(-c2cncc(Cl)c2)nc1C(F)(F)F` [Compound A27] was tested, and the “Control of weed species, ORYSA” value [1] was 0, the “Control of weed species, TRZAW” value [2] was 0 and the “Control of weed species, ECHCG” value [3] was 2. The “Control of weed species, LOLPE” value [4] was 2, the “Control of weed species, ALOMY” value [5] was 0 and the “Control of weed species, AVEFA” value [6] was 2. The “Control of weed species, ORYSA” value [7] was 1, the “Control of weed species, TRZAW” value [8] was 2 and the “Control of weed species, ECHCG” value [9] was 5. For the same compound, the “Control of weed species, LOLPE” value [10] was 3, the “Control of weed species, ALOMY” value [11] was 1 and the “Control of weed species, AVEFA” value [12] was 4.
For `Cc1nc(-c2cccnc2)sc1N(C)C(=O)OC(C)C` [Compound A20], the “Control of weed species, ORYSA” value [1] was 0, the “Control of weed species, TRZAW” value [2] was 0 and the “Control of weed species, ECHCG” value [3] was 5. For the same compound, the “Control of weed species, LOLPE” value [4] was 2, the “Control of weed species, ALOMY” value [5] was 0 and the “Control of weed species, AVEFA” value [6] was 2. For the same compound, the “Control of weed species, ORYSA” value [7] was 0, the “Control of weed species, TRZAW” value [8] was 1 and the “Control of weed species, ECHCG” value [9] was 5. The “Control of weed species, LOLPE” value [10] was 3, the “Control of weed species, ALOMY” value [11] was 1 and the “Control of weed species, AVEFA” value [12] was 3.
For `CN(C(=O)OC(C)(C)C)c1sc(-c2cccnc2)nc1Cl` [Compound A29], the “Control of weed species, ORYSA” value [1] was 2, the “Control of weed species, TRZAW” value [2] was 3 and the “Control of weed species, ECHCG” value [3] was 3. For the same compound, the “Control of weed species, LOLPE” value [4] was 2, the “Control of weed species, ALOMY” value [5] was 1 and the “Control of weed species, AVEFA” value [6] was 2. For the same compound, the “Control of weed species, ORYSA” value [7] was 1, the “Control of weed species, TRZAW” value [8] was 1 and the “Control of weed species, ECHCG” value [9] was 5. For the same compound, the “Control of weed species, LOLPE” value [10] was 4, the “Control of weed species, ALOMY” value [11] was 1 and the “Control of weed species, AVEFA” value [12] was 4.
With `Cc1nc(-c2cncc(OCc3ccccc3)c2)sc1N(C)C(=O)OC(C)(C)C` [Compound A14] the “Control of weed species, ORYSA” value [1] was 0, the “Control of weed species, TRZAW” value [2] was 1 and the “Control of weed species, ECHCG” value [3] was 0. For the same compound, the “Control of weed species, LOLPE” value [4] was 1, the “Control of weed species, ALOMY” value [5] was 0 and the “Control of weed species, AVEFA” value [6] was 0. For the same compound, the “Control of weed species, ORYSA” value [7] was 0, the “Control of weed species, TRZAW” value [8] was 0 and the “Control of weed species, ECHCG” value [9] was 1. For the same compound, the “Control of weed species, LOLPE” value [10] was 0, the “Control of weed species, ALOMY” value [11] was 0 and the “Control of weed species, AVEFA” value [12] was 0.
